The text below walks through data of patent publication US20130273557A1 (priority 2010, published 2013).

“Also recorded” adds a separate entry of the source.

Data set [1] concerns the target ATP synthesis in liver mitochondria (Rattus norvegicus, UniProt P19511+Q06647). On the procedure: Synthesis of ATP in liver mitochondria was measured using an ATP determination kit (A-22066; Molecular Probes, Eugene, Oreg.), supplemented with 1 mM sodium succinate and 500 nM rotenone. Assays were performed in 96-well microplates (Becton Dickinson, Franklin Lakes, N.J.) in a final volume of […] consisting of 10 μL mitochondria (0.1 mg protein/ml final concentration), 10 μL of drug or control buffer and 90 μL ATP-determination reaction mixture. After a 5 min. recording of basal luciferase-generated luminescence, ADP (final concentration, 10 μM, 10 μL) was injected into each well. Luminescence was recorded every 6 sec for 15-20 min.

Data set [2] concerns SH-SY5Y neuroblastoma cells. As to conditions: 1-100 μM; 24 hr. On the procedure: Undifferentiated SH-SY5Y human neuroblastoma cells (ATCC, Manasses, Va.) were maintained in humidified 5% CO2 in 1:1 Ham's F12 nutrient mixture with Glutamax® and Minimal Essential Medium with L-glutamine (MEM-Alpha), 10% FBS, and 1% penicillin/streptomycin (Gibco® Invitrogen Corp., Carlsbad, Calif.).
(§1) Cellular viability was measured using CellTiter-Blue® (Promega Corp., Madison, Wis.) in black-walled optical imaging multiwell plates, and cellular ATP was measured using the CellTiter-Glo® (Promega Corp., Madison, Wis.) luminescence assay in opaque-walled multiwell plates according to the manufacturer's protocol.

Data set [3] relates to leak conductance of urea-treated SMVs. In words: Patch clamp recordings of urea-treated SMVs (F1 removed). The format is biochemical, rat. On the procedure: F1 subunits were removed from SMVs by adapting previously-established methods. 60 mg SMV's/1 mL IB was treated with 1 mL of […] for 5 min. on ice, then centrifuged at 21000×g for 10 min. The pellet was washed 3× in IB (centrifugation at 21000×g for 10 min) and stored in IB.
Giga-ohm seals were formed on SMVs using pipettes and solutions as above. Peak membrane conductance was measured as described above.
For orientation: Patch clamp records ionic current or voltage across a cell membrane.

Data set [4] has as its system Ca^2+-induced ion conductance in mitochondria. Particulars: 2 or 20 μM, in 100 μM Ca^2+.
Description: Patch-clamp recordings were made from de-energized mitochondria in intracellular solution (120 mM potassium chloride, 8 mM NaCl, 0.5 mM EGTA, 10 mM HEPES, pH adjusted to 7.3) at room temperature (22-25° C.). Pipettes (80-100M0) were filled with the same solution; recordings were made using a Heka 8 amplifier with Vm held at positive voltages up to +180 mV. Data were recorded at 20 kHz and filtered at 500-1000 Hz. […] Reagents were rapidly perfused into the recording chamber. Peak membrane conductance was measured as the peak amount of current (pA) from zero, converted to pS by assuming a linear I-V relationship. Discrete channel conductances were sorted by activity (% occurrence of a conductance level per unit time measured using pCLAMP 10 software, Molecular Devices, Sunnyvale, Calif.); levels defined as closed (no current), small (<200 pS), intermediate (>200 pS and <750 pS) and large (>750 pS). Mean open time (NPo; open time of discrete single channels times the apparent number of single channels in the patch) was used to assess drug effect
For data set [5], the target named is T1, complex V (F1FO ATPase) (Rattus norvegicus, UniProt P19511+Q06647). As to conditions: concentration-dependent. The procedure: ATP hydrolysis was also measured using an NADH-ATP-synthase kit (Mitosciences, USA; catalog #MS541), according to the manufacturer's protocol with modifications. SMVs were added 20 min. prior to addition of the reagent mix. The rate of change in […] over time as NADH was oxidized was measured as a decrease in absorbance at 340 nm.

Data set [6] deals with models of cell death and NDDs. As to conditions: compared with pramipexole; cited from earlier work.
Data set [7] deals with subjects with ALS. As to conditions: double-blind, placebo- and low-dose-controlled 2-part Phase 2; cited from earlier work.
Data set [8] concerns the target T1, complex V (F1FO ATPase). In words: ATP hydrolysis in SMVs, luciferin-luciferase assay. It is filed as biochemical. The arrangement: from tissue; host or cells: rat brain mitochondria, lubrol-insoluble submitochondrial vesicles (SMVs). The source says:
3 wells were used for each condition, repeated at least 3× on different SMV isolations.

For data set [9], the system named is digitonin-treated cortical neurons. In words: ATP production following ADP pulse in digitonin-treated cortical neurons. The format is cell-based, rat. As to conditions: dexpramipexole 30 μM.
In data set [10] the test system is human neuroblastoma SH-SY5Y cells. Particulars: MPP^+ or PSI exposure; cited from earlier work.
The target in data set [11] is human F1FO ATP synthase b subunit (Homo sapiens, UniProt P24539). As to conditions: co-incubation in 'cold' dexpramipexole (100 μM).
Excerpt: The human ORF constructs for alpha, beta, b, c, delta, d, epsilon, gamma and OSCP ATP synthase subunits, tagged with Myc and DDK (Flag) tags were from Origene Technologies (Rockville, Md.). 293T cells were transfected with the above constructs, using the calcium phosphate method (Li et al. 2008). On day-3 post transfection, the cells were lysed and the fusion proteins were bound to the EZview™ Red ANTI-FLAG® M2 Affinity Gel (Sigma, USA), according to the manufacturer's protocol. The proteins were eluted from a portion of the samples and presence of the proteins on the beads was verified by immunoblot analysis, using the mouse anti-Myc antibodyies (Cell signaling Technology). […] They were spun at 3000×g in 0.45 um Spin-X centrifugal devices (Corning Life Sciences, USA) for 10 min. The samples were washed three times with PBS and the filter units were incubated in Ultima Gold scintillation liquid (Perkin Elmer Health Sciences, Inc.) overnight. Samples were counted for ^14C, using a Beckman Coulter LS 5000TD scintillation counter.
For data set [12], the system named is cultured hippocampal neurons. As to conditions: 10 μM, 12 hr pre-treatment. On the procedure:
Cultured hippocampal neurons were prepared and plated on 96 well plates. […] Cellular viability was measured using CellTiter-Blue® (Promega Corp., Madison, Wis.) in black-walled optical imaging multiwell plates, and cellular ATP was measured using the CellTiter-Glo® (Promega Corp., Madison, Wis.) luminescence assay in opaque-walled multiwell plates according to the manufacturer's protocol.

Data set [13] relates to citrate synthase. As to conditions: dexpramipexole 30 μM. The procedure: Primary rat cortical cultures were incubated with digitonin (10 μg/ml) and rotenone (100 nM) for 45 minutes in MAS1 buffer prior to measurement of oxygen consumption rate (OCR) by a Seahorse® flux analyzer. […] Data are shown as a percentage of the control group OCR±SEM.
Data set [14] has as its system C2C12 cells. Particulars: mouse, 18 h, 30 µM. The procedure:
Data are presented as a percentage of the vehicle-treated control ±SEM (n=10 wells at each concentration). […] Experiments commenced 18 hr. after addition of drug. […] Data are presented as a percentage of the vehicle-treated control±SEM (n=14-17 wells for each group).
(§2) The C2C12 mouse myoblast cell line (ATCC, Manasses, Va.) was cultured in Dulbecco's Modified Eagle Medium (DMEM; Gibco®; Carlsbad, Calif.) supplemented with 10% fetal bovine serum (FBS), 2 mM GlutaMax® and penicillin/streptomycin. Cells were maintained in 10% CO2 humidified at 37° C.
as §1

Data set [15] relates to C2C12 myoblasts. Kind of data set: OCR and ECAR in C2C12 myoblasts (Seahorse). The format is cell-based, mouse. The procedure:
as §2
OCR and ECAR were measured with a Seahorse® XF24 Flux Analyzer (Seahorse Bioscience, Billerica, Mass.). For PSI experiments on C2C12 cells, basal values were assessed in non-buffered DMEM Assay Medium without glucose, glutamine or pyruvate, and supplemented with 25 mM glucose, 6 mM Glutamax®, and 1 mM sodium pyruvate. […] Succinate and ADP stocks were diluted to 10× concentrations in pre-warmed XF MAS buffer, pH 7.2. Using a Plate Prep Station (Seahorse Bioscience, Billerica, Mass.), cells were washed with 1 mL buffer and were brought to 607 μL with buffer. […] Raw basal OCR and ECAR values were normalized as a percent of the mean control value for each individual experiment. Normalized data from experiments were expressed as mean±SEM.

Where [16] appears, read: co-incubation of dexpramipexole 30 μM and PSI 30 nM.

Chain of ATP synthesis in liver mitochondria (P19511 43-256): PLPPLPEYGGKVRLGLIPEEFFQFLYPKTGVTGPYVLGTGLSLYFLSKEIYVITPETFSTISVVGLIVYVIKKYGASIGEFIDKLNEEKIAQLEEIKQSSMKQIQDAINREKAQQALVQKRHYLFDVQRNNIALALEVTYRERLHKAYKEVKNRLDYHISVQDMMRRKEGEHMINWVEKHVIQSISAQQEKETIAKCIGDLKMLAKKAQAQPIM
Chain of ATP synthesis in liver mitochondria (Q06647 24-213): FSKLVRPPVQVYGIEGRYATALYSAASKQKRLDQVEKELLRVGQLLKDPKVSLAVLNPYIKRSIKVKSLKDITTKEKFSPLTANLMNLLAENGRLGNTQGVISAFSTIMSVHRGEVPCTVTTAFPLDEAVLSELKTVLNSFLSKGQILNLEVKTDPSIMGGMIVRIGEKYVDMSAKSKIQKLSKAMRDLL
Chain of ATP synthesis in liver mitochondria (P10719 47-529 partner): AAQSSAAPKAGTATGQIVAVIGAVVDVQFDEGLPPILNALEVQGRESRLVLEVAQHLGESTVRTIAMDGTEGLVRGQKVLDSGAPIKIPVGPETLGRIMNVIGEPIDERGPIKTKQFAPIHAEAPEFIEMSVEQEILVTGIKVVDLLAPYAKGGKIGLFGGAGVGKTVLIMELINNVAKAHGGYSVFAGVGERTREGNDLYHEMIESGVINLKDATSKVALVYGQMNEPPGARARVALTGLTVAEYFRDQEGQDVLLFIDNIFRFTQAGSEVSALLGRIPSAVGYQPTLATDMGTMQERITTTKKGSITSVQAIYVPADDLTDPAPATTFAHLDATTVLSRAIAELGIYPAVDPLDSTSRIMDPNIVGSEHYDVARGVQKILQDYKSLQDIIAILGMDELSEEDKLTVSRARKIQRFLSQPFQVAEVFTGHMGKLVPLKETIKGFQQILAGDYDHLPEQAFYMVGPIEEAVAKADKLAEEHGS
Chain of ATP synthesis in liver mitochondria (P15999 44-553 partner): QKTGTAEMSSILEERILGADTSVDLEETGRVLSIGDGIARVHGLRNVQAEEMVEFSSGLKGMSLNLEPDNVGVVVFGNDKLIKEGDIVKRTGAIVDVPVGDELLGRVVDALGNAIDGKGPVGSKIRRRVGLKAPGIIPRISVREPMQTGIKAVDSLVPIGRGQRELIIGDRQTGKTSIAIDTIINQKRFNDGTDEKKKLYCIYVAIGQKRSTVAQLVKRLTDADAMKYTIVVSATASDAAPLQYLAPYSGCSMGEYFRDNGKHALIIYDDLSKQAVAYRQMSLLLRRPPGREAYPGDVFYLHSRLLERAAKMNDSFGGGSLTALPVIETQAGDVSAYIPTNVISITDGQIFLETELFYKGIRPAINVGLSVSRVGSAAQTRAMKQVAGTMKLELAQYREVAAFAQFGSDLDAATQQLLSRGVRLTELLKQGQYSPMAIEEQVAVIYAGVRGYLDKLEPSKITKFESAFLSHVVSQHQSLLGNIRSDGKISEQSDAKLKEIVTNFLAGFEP
Chain of ATP synthesis in liver mitochondria (P35435 whole entry partner): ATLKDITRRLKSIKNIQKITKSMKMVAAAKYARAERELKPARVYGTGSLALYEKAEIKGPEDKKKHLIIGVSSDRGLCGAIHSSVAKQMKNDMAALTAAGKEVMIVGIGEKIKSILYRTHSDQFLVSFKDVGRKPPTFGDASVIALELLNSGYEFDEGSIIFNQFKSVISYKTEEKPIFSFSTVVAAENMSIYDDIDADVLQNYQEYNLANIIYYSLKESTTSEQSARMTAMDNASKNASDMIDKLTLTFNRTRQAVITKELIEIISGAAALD
Chain of human F1FO ATP synthase b subunit (P24539 43-256): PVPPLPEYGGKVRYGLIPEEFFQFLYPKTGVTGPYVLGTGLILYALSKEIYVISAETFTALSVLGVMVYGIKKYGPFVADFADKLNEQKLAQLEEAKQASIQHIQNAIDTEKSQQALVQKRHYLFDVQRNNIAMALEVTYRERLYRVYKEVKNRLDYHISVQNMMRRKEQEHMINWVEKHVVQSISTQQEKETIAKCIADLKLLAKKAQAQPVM

With `CCCN[C@@H]1CCc2nc(N)sc2C1` [dexpramipexole, (6R)-4,5,6,7-tetrahydro-N-6-propyl-2,6-benzothiazole-diamine], in data set [1], the “Hill slope of CRC” value is under 1. For the same compound, in data set [2], the “maximal group increases in ATP levels relative to control” value was about 18%. Further, in data set [3], the “leak conductance after removal of F1” value is on record as “no longer inhibited the conductance”. Besides, in data set [4], the mitochondrial membrane currents entry is listed as “effectively decreased”. For the same compound, the “ATP hydrolysis (change in NADH signal)” value in [5] is given as “significantly enhanced ATP hydrolysis”. For the same compound, the protection result in data set [6] is “equally protective”. Besides, the trends in efficacy result in data set [7] was “reduction of functional decline and decreased mortality”. Moreover, the EC50 in data set [8] worked out at 1630 nM. In data set [9], the “initial slope of ATP synthesis following an ADP pulse” value is “unchanged” and the “maximal ATP levels” value is recorded as “unchanged”. Also, in data set [10], the in vitro cytoprotection entry was “significant concentration-dependent in vitro cytoprotection”. In data set [11], the “competition of ^14C-dexpramipexole binding to b subunit” value is “significantly reduced binding”. Besides, in data set [12], the “increase in ATP levels compared to vehicle-treated cultures” value is on record as 11%. The “levels of citrate synthase” value in [13] is “unchanged”. For the same compound, the cell viability result in data set [14] was “neither ATP levels nor cell viability (FIG. 5b) were significantly affected”. In data set [15] (setting [16]), the ECAR result is recorded as “no increase in ECAR” and the OCR entry is recorded as “significant decrease in OCR”. Further, the OCR result in [15] (dexpramipexole 30 μM or PSI 30 nM alone, 18 hr) is on record as “significant decrease in OCR; also recorded: significantly decreased”.

In general, EC50 refers to the midpoint of the concentration-response curve.
